Source: patent US20250082760A1 (priority 2020, published 2025)
In brackets after ≈: the same amount, converted by molar mass. Where two headings read alike, the source gives them in different places.

Columns and labels:
[1] = water solubility experiments; assay type: physicochemical
[2] = test system: hot plate pain threshold in ICR mice; assay: hot plate method, compound 1, intravenous administration; assay type: in vivo; conditions: for Pain threshold before administration: baseline; for Pain threshold before administration / Pain threshold after administration: X ± SD
Method: (§1) 20 ICR mice, 18-22 g, half male and half male, were purchased from the animal room of Xi′an Jiaotong University School of Medicine; rearing conditions: room temperature 18-20° C., same sex rearing in separate cages, 12-hour light, regular ventilation, conventional full-price solid feed feeding, bedding changed every two days; 20 mice were randomly divided into 2 groups (low-dose test drug group, test drug high-dose group) with 10 mice in each group (5 ♀5).
An appropriate amount of compound 1 was accurately weighed and dissolved in 0.9% physiological saline to prepare a concentration of 5 mg/ml (dissolved state is good, basically transparent), which was used as a mother solution. During the test, according to the test requirements, diluted with normal saline to an appropriate concentration.
The first group was the low-dose test drug group, and the test drug was given 10 mg/kg by tail vein injection; the second group was the test drug high-dose group, and the test drug was given 15 mg/kg by tail vein injection.
(§2) The mice were placed in a hot plate apparatus at a temperature of 55±0.5° C., and the pain thresholds of the mice were measured and recorded before administration, 30 minutes after administration, 60 minutes after administration, and 120 minutes after administration.

[3] = test system: hot plate pain threshold in mice; assay: hot plate method, compound 1, intragastric administration; assay type: in vivo; conditions: for Pain response time Before administration: baseline, n 10; for Pain response time Before administration / Pain response time After administration: X ± SD; for Pain response time After administration / Pain response time extension rate: 60 min after administration; for Pain response time extension rate: blank group 3.9 ± 6.6
Method: All the mice participating in the experiment were subjected to hot plate pain threshold detection before the experiment, and qualified mice with pain threshold of 10-40 s were screened.
Accurately weigh an appropriate amount of compound 1, dissolve it in distilled water and prepare a mother liquor of 100 mg/ml, then dilute to 1.25 mg/ml (25 mg/kg), 2.5 mg/ml (50 mg/kg) with double distilled water respectively; accurately weigh an appropriate amount of the positive control drug gabapentin, dissolve in distilled water and prepare a 100 mg/ml mother solution, and then dilute to 10 mg/ml (200 mg/kg) with double distilled water. All medicines are prepared and utilized as needed.
40 only qualified mice were divided into 4 groups, half male and half female in each group. The first group is the blank group, no administration; the second group is the positive control (gabapentin) 25 mg/kg group; the third group is the test drug 25 mg/kg group; the fourth group is the test drug 50 mg/kg group 4. All were administered by gavage.
The mice were placed in a hot plate apparatus at a temperature of 55±0.5° C., and the pain thresholds of the mice were measured and recorded before administration and 60 min after administration.

[4] = test system: hot plate pain threshold in ICR mice; assay: hot plate method, compound 2, intravenous administration; assay type: in vivo; conditions: for Pain threshold before administration: baseline; for Pain threshold before administration / Pain threshold after administration: X ± SD
Method: as §1, with “same-sex” for “same sex rearing in separate”, “feeding, and the” for “feeding,”, “bedding was” for “bedding”, “group),” for “group) with”, “♀95).” for “♀5).”
An appropriate amount of compound 2 was accurately weighed and dissolved in 5% glucose water to prepare a concentration of 2 mg/ml (dissolved state is good, basically transparent), which was utilized as a mother solution. During the test, according to the test requirements, it was diluted with 5% glucose aqueous solution to an appropriate concentration.
The first group was the high-dose test drug group, and the test drug was given 10 mg/kg by tail vein injection; the second group was the low-dose test drug group, and the test drug was given 3 mg/kg by tail vein injection.
as §2

[5] = test system: convulsions in mice induced by electrical stimulation; assay: anticonvulsant effect on mice induced by electrical stimulation; assay type: in vivo
Method: (1) Divide 40 mice (20♀20) into 5 groups at random, with 8 mice (4♀4) in each group, and label No. 1 to No. 8 with picric acid respectively; (2) All mice were tested according to the order of groups and labels electrical stimulation, the initial voltage was 40V, the voltage was increased by 2.5V each time, the time interval between two electrical stimulations for the same mouse was 20 min, the threshold voltage value of convulsion and the time from convulsion to complete recovery were recorded, and the dead mice were discarded, qualified mice were screened; (3) After screening, 7 mice (2♀5) in the 40 mice could not recover after convulsions and died, and the remaining 33 qualified mice […]; (4) From standby 7 mice were screened out as a supplement, and the number of the dead mice in step (2) was marked with picric acid and added to the corresponding groups, so that a total of 40 (20♀20) qualified mice in 5 groups were finally obtained., all mice were weighed and recorded.
Positive drug: sodium valproate (specification 0.2 g), take 1 tablet in a mortar, add 20 ml of 0.5% CMC-Na solution while grinding, to a suspended state, set EP tube for use; test drug (compound 5): Dissolve in distilled water to 5, 10, and 20 mg/ml solutions, respectively, and set EP tubes for later use.
Electrical stimulation was performed 1.5 hours after the last administration, and each mouse was given the threshold voltage measured before to observe the experimental phenomenon and record whether there was convulsions and death occurred.
The first group was the blank control group, which was given 0.4 ml/20 g of 0.5% CMC-Na by gavage; the second group was the positive drug control group, which was given sodium valproate 200 mg/kg by gavage; the third group was the test drug the low-dose group, which was given 100 mg/kg of compound 5 by gavage; the fourth group was the test drug medium-dose group, which was given 200 mg/kg of compound 5 by gavage; the fifth group was the test drug high-dose group, which was given 400 mg/kg of compound 5 by gavage.
1.5 h after the last administration, electrical stimulation was performed according to the threshold voltage measured before each mouse, the experimental phenomenon was observed, and the occurrence of convulsions and death were recorded. If convulsion occurs, record the time of complete recovery; if no convulsion occurs, continue to increase the voltage with a gradient of 2.5V to measure the current threshold voltage value and recovery time.
Strictly follow the 5 periods of convulsion in mice, namely, latency period, rigid flexion period, hindlimb extension period, clonic period and recovery period to judge whether the mice have convulsions after electrical stimulation, and the phenomenon of death can not be recovered after convulsions.

[6] = 10 mg/kg tail vein group, hot plate 55±0.5° C.

**Q.** What does the source list for `CC(C)c1cc(I)cc(C(C)C)c1OC(=O)NCC1(CC(=O)O)CCCCC1` [Compound 4]?
**A.** logP (physchem): 3.52; solubility [1]: 40 µg/mL (≈ 79.8 µM)

**Q.** With `CC(C)c1cccc(C(C)C)c1OC(=O)CC1(CN)CCCCC1.Cl` [Compound 1, 2,6-diisopropylphenyl 2-(1-(aminomethyl)cyclohexyl)acetate hydrochloride] as the compound, how does the logP (physchem) read?
**A.** 1.1

**Q.** And the “Pain threshold before administration” value [2, 6]?
**A.** 8.92 ± 3.05 s

**Q.** What about the “Pain threshold after administration” value ([2]; 10 mg/kg tail vein, 30 min) of the same compound?
**A.** 17.09 ± 6.05 s

**Q.** And the “Pain threshold after administration” value ([2]; 10 mg/kg tail vein, 60 min)?
**A.** 16.96 ± 6.13 s

**Q.** And the “Pain threshold after administration” value ([2]; 10 mg/kg tail vein, 120 min)?
**A.** 12.36 ± 5.75 s

**Q.** What about the “Pain threshold before administration” value ([2]; 15 mg/kg tail vein group) of the same compound?
**A.** 10.90 ± 3.72 s

**Q.** And the “Pain threshold after administration” value ([2]; 15 mg/kg tail vein, 30 min)?
**A.** 18.88 ± 6.06 s

**Q.** What about the “Pain threshold after administration” value ([2]; 15 mg/kg tail vein, 60 min) of the same compound?
**A.** 13.49 ± 6.53 s

**Q.** And the “Pain threshold after administration” value ([2]; 15 mg/kg tail vein, 120 min)?
**A.** 6.47 ± 5.40 s

**Q.** And the “analgesic effect in the hot plate test” value ([2]; intravenous 10 and 15 mg/kg, 10 mg/kg best, good within 30-60 minutes after injection)?
**A.** good analgesic effect

**Q.** What about the solubility [1] of the same compound?
**A.** 18000 µg/mL

**Q.** What about the “Pain response time Before administration” value ([3]; 25 mg/kg gavage group) of the same compound?
**A.** 22.0 ± 10.2 s

**Q.** What about the “Pain response time After administration” value ([3]; 25 mg/kg gavage) of the same compound?
**A.** 32.1 ± 14.5 s

**Q.** And the “Pain response time extension rate” value ([3]; 25 mg/kg gavage)?
**A.** 59.3 ± 66.7 %

**Q.** What about the “Pain response time Before administration” value ([3]; 50 mg/kg gavage group) of the same compound?
**A.** 20.0 ± 5.9 s

**Q.** And the “Pain response time After administration” value ([3]; 50 mg/kg gavage)?
**A.** 40.2 ± 17.9 s

**Q.** And the “Pain response time extension rate” value ([3]; 50 mg/kg gavage)?
**A.** 100.0 ± 91.1 %

**Q.** What about the “analgesic effect, hot plate, gavage” value ([3]; 25 and 50 mg/kg gavage, comparable to gabapentin) of the same compound?
**A.** can prolong the reaction time of hot plate pain

**Q.** With `CC(C)c1cccc(C(C)C)c1OC(=O)CC1(C[N+](C)(C)C)CCCCC1` [Compound 6, (1-(2-(2,6-diisopropylphenoxy)-2-oxoethyl)cyclohexyl)-N,N,N-tri-methylmethanaminium iodide] as the compound, how does the logP (physchem; fat/water partition (phases not further specified)) read?
**A.** 1.54

**Q.** And the solubility [1]?
**A.** 900 µg/mL

**Q.** Which logP (physchem) does the source give for `CC(C)c1cccc(C(C)C)c1OC(=O)NCC1(CC(=O)O)CCCCC1` [Compound 3] here?
**A.** 2.38

**Q.** And the solubility [1]?
**A.** 80 µg/mL (≈ 213 µM)

**Q.** Which results are given for `CC(C)c1cc(I)cc(C(C)C)c1OC(=O)CC1(CN)CCCCC1.Cl` [Compound 2, 4-iodo-2,6-diisopropylphenyl 2-(1-(aminomethyl)cyclohexyl)acetate hydrochloride]?
**A.** logP (physchem): 1.66; solubility [1]: 13000 µg/mL; Pain threshold before administration ([4]; 3 mg/kg tail vein group): 11.33 ± 4.08 s; Pain threshold after administration ([4]; 3 mg/kg tail vein, 30 min): 12.41 ± 3.67 s; Pain threshold after administration ([4]; 3 mg/kg tail vein, 60 min): 10.16 ± 3.38 s; Pain threshold after administration ([4]; 3 mg/kg tail vein, 120 min): 6.47 ± 5.40 s; Pain threshold before administration [4, 6]: 13.18 ± 3.33 s; Pain threshold after administration ([4]; 10 mg/kg tail vein, 30 min): 18.10 ± 5.96 s; Pain threshold after administration ([4]; 10 mg/kg tail vein, 60 min): 13.98 ± 6.78 s; Pain threshold after administration ([4]; 10 mg/kg tail vein, 120 min): 14.18 ± 6.90 s; analgesic effect in the hot plate test ([4]; intravenous, at 10 mg/kg performed well 30 minutes after injection): good analgesic effect

**Q.** Which results are given for `CCCC(CCC)C(=O)[O-].[Na+]` [sodium valproate, reference compound]?
**A.** anti-electrical convulsion ability (threshold voltage increase) ([5]; compared with blank group, sodium valproate 200 mg/kg gavage, 1.5 h after last administration, p<0.05): significantly improve; weight gain of mice ([5]; mouse, in vivo): no difference
